The test system of test [1] is SCD-Selp−/− mice. Nature of the test: qFILM assessment of P-selectin-independent pulmonary vaso-occlusion in SCD-Selp−/− mice IV administered oxy-Hb. The class given is in vivo, mouse. Particulars: IV 10 μmole/kg oxy-Hb with 10 mg/kg inhibitor vs oxy-Hb alone, 10 mg/kg. The text has this: Quantitative fluorescence intravital lung microscopy (qFILM) was used to assess the absence or presence of platelet-neutrophil aggregate mediated pulmonary vaso-occlusion. Pulmonary microcirculation (pseudo-colored purple), neutrophils (red) and platelets (pseudo-colored green) were labeled in vivo by IV administration of FITC dextran, AF546-anti-Ly6G Ab and V450-anti-CD49b Ab, respectively. […] White arrows denote the direction of blood flow within the pulmonary arterioles. Alveoli are marked with asterisks. Scale bars 20 μm. The diameter of pulmonary arteriole in B-E is ˜22 μm, 32 μm, 31.5 μm, and 31 μm, respectively. […] Refer Online Data Supplement for details. […] The data for mice with SCD IV administered 10 oxy-Hb (n=5 mice; 75 FOVs) are included as black bars in FIGS. 1N and 1O for relative comparison. qFILM FOV size ˜65 536 μm^2. Data represent mean ±SE and are compared using Student t test. *P<0.05 (FIG. 1P) Schematic showing the main findings of the study. The sterile inflammatory milieu (DAMPs, IFN-I signaling, and ROS) in SCD promotes caspase-4 (humans) or caspase-11 (mouse)-dependent cleavage of neutrophil GSDMD into the active form GSDMD-NT, leading to the shedding of NETs in the liver microcirculation. Once shed, these NETs are carried by the blood as cNETs to the lung, where they promote neutrophil-platelet aggregation in the pulmonary arterioles, leading to PVO and lung injury (acute chest syndrome).
SCD-Selp^−/− mice were IV administered 10 μmole/kg oxy-Hb (10 oxy-Hb) without or with 10 mg/kg GSDMD inhibitor (Disulfiram). Quantitative fluorescence intravital lung microscopy (qFILM) was used to assess the absence or presence of pulmonary vasoocclusion using the same experimental scheme described in FIG. 1A. Pulmonary vasoocclusions (PVOs) were compared between treatment groups using following two parameters: Number of PVOs per Field of View (#PVOs/FOV) and number of large PVOs (with area>1000 μm^2) per FOV. […] The data for SCD mice IV administered 10 oxy-Hb (n=5 mice; 75 FOVs) is included as black bars in FIGS. 4A and 4B for relative comparison. FOV size˜65,536 μm^2. […]
(§1) (FIG. 5A) Experimental scheme: SCD or SCD-Selp^−/− mice were IV administered 10 μmole/kg oxy-Hb (10 oxy-Hb) without or with 10 mg/kg GSDMD inhibitors LDC75591 or Disulfiram. In FIGS. 5C-5D, venous blood was processed to generate PPP and cNETs detected in PPP using Imaging Flow Cytometry. Imaging Flow Cytometry data was quantified to estimate concentration of cNETs (#cNETs/μl of plasma). In FIGS. 5B, and 5E-5F, quantitative fluorescence intravital lung microscopy (qFILM) was used to detect arrival of circulating NETs (cNETs) within the lung microcirculation. Number of cNETs entering per FOV over a 1-minute duration (#cNETs/FOV/min) were quantified. […]

Test [2] concerns SCD-Selp−/− mice. Kind of test: cNETs in platelet-poor plasma by Imaging Flow Cytometry, SCD-Selp−/− mice. The class given is in vivo, mouse. The following applies: IV 10 μmole/kg oxy-Hb with 10 mg/kg inhibitor vs oxy-Hb alone. The procedure: as §1, with “quantified. In FIGS. 5G-5J, qFILM was used to assess the absence or presence of pulmonary vaso-occlusion using the experimental strategy described in FIG. 1A. Pulmonary vaso-occlusions (PVOs) were compared between treatment groups using following two parameters: Number of PVOs per Field of View (#PVOs/FOV) and number of large PVOs (with area>1000 μm^2) per FOV. (FIG. 5B) #cNETs/FOV/min in SCD mice IV administered 10 oxy-Hb were not different from SCD-Selp^−/− mice IV administered 10 oxy-Hb. SCD IV Oxy-Hb (n=4 mice; 44 FOVs). SCD-Selp^−/− IV oxy-Hb (n=5 mice; 71 FOVs). (FIG. 5C) Plasma concentration of cNETs was not different between SCD and SCD-Selp^−/− mice (n=4 mice per group) IV administered 10 oxy-Hb.” for “quantified.”
(A flow cytometer gives signals particle by particle.)

Entries after “also recorded” stand apart in the source; their conditions may differ.

`COc1ccccc1-c1cc2n(n1)Cc1ccc(NC(C)=O)cc1OC2` [LDC7559]: in the test on SCD-Selp−/− mice [1], the “Number of PVOs per Field of View (#PVOs/FOV)” value is given as “significantly reduced; also recorded: threefold” and the “number of large PVOs (with area>1000 μm^2) per FOV” value is “absent; also recorded: absence”. The “Plasma concentration of cNETs (#cNETs/μl of plasma)” value with SCD-Selp−/− mice [2] is “significantly less”.

These data come from patent US20240358721A1, “GASDERMIN-D INHIBITORS AND USES THEREOF FOR TREATING PULMONARY VASO-OCCLUSION” (UNIVERSITY OF PITTSBURGH-OF THE COMMONWEALTH SYSTEM OF …, priority 2021, published 2024).
